Assay results from patent publication US8232253B2, “Treatment of lung cancer” (Ramot at Tel-Aviv University Ltd., priority 2006, dated 2012).

Tests used:
phospho-ERK = assay: Phospho-ERK immunoblotting in A549 cells; format: cell-based, human
Experimental: A549 cells were incubated for 24 or 48 h with or without FTS, as described above, and then lysed with lysis buffer as described in Haklai, R., Gana-Weisz, M., Elad, G., et al., Biochemistry 37:1306-14 (1998). The apparent amounts of K-Ras-GTP in 0.5 mg protein of total cell lysates were determined by the glutathione-S-transferase (GST)-RBD (Ras-binding domain of Raf) pull-down assay, as described in (Elad-Sfadia, G., Haklai, R., Ballan, E., Gabius, H. J., Kloog, Y., J Biol Chem 277:37169-75 (2002). The apparent amounts of Rac1-GTP and of RhoA-GTP, each in 2 mg protein of total cell lysates, were determined, respectively, by pull-down assays with GST-PBD (Rac1-binding domain of PAK1)-conjugated and GST-Rhotekin BD (Rho-binding domain of Rhotekin)-conjugated beads [Benard, V., Bohl, B. P., Bokoch, G. M, J Biol Chem 274:13198-204 (1999); Fiordalisi, J. J., Keller, P. J., Cox, A. D., Cancer Res 66:3153-61 (2006). […] Levels of phospho-ERK and phospho-Akt were determined by immunoblotting [Haklai, R., Gana-Weisz, M., Elad, G., et al., supra.] using rabbit anti phospho-ERK1/2 Ab (Santa Cruz Biotechnology, Santa Cruz, Calif.) and rabbit anti phospho-Akt Ab (Cell Signaling, Beverly, Mass.). Protein bands were visualized by enhanced chemiluminescence and quantified by densitometry using ImageJ computer software (National institutes of Health, Bethesda, Md.). […]

A549 cells [1] = assay: Immunofluorescence of cytoskeleton (F-actin, vinculin) and cell morphology; format: cell-based, human; settings: 75 μM FTS, 48 h
Experimental: A549 cells were plated on glass cover slips (2×10^4 cells/well in 6-well plates), incubated for 24 h in medium containing 5% FCS, and then incubated for 48 h with or without 75 μM FTS. The cells were fixed and permeabilized at room temperature by successive incubations with 3.7% formaldehyde (20 min) and 0.2% Triton X-100 in PBS (5 min), then washed for 5 min with UB buffer (150 mM NaCl, 10 mM Tris pH 7.6, and 0.2% sodium azide in PBS) and blocked with 2% BSA in UB (UBB, 5 min). The fixed cells were incubated successively with naïve goat IgG for 30 min (200 μg/ml, Jackson ImmunoResearch Laboratories, West Grove, Pa.), anti-vinculin Ab for 1 h (1:400, Sigma-Aldrich), goat anti-mouse Cy2-conjugated Ab for 1 h (1:200, Jackson), and rhodamine-labeled phalloidin for 1 h (1:1000, Sigma-Aldrich). Between each of the above steps the cells were washed for 30 min with UBB. Lastly, the cover slips were washed with UB, dried, and mounted onto the slides with Muviol. F-actin (red) and vinculin (green) were visualized with a Zeiss LSM 510 confocal microscope fitted with non-leaking green and red fluorescence filters. Co-localization was assessed using the co-localization function of the LSM 510 software. […]

A549 cells [2] = assay: BrdU incorporation into DNA; format: cell-based; settings: Homo sapiens, 75 μM FTS, 48 h, read-out: inhibition of incorporation of BrdU into DNA relative to vehicle-treated control
Experimental: A549 cells were plated on glass cover slips (1.2×10^5 cells/well in 6-well plates) and incubated for 24 h in medium containing 5% FCS. The cells were then incubated for 24 h with or without 75 μM FTS and then for 24 h with 5-bromo-2-deoxyuridine (BrdU) (Zymed BrdU labeling kit, 1:100 dilution). Cells were fixed with 4% paraformaldehyde, permeabilized with 0.2% Triton X-100 (BDH, Poole, UK), washed with PBS, blocked with TBS Tween (TBST; 50 mM Tris, pH 7.4, 100 mM NaCl, 0.1% Tween 20) containing 1% bovine serum albumin (BSA), treated sequentially with 2 N HCl and 0.1 M sodium borate pH 8.5, and then blocked with goat γ-globulin and washed with TBST-BSA (described above). The cells were then labeled successively with mouse anti-BrdU antibody (Ab) (Zymed kit; 1:50 dilution), biotinylated rabbit anti mouse IgG (5 μg/ml), and Cy3-streptavidin (1.5 μg/ml). Cells with BrdU-stained nuclei were counted under a fluorescence microscope.
To investigate the effect of FTS on lung cancer cell proliferation, we first incubated A549 cells that harbor the activated K-ras gene mutated at codon 12. A549 cells are commonly used as a model for drug screening. […] The number of cells in the FTS-treated cultures was determined by direct counting of A549 cells grown for 6 days in the presence of FTS and was expressed as a percentage of the number recorded in the controls. […]

A549 cells [3] = assay: FACS analysis of cell cycle (propidium iodide); format: cell-based, human; settings: for apoptotic population of cells (sub-G1): 75 μM FTS; for reduction in G1 population: FTS
Experimental: A549 cells were plated (9×10^5 cells) in 10-cm plates, incubated for 24 h in medium containing 5% FCS, and then incubated for 24 or 48 h with or without 75 μM FTS. The cells were collected, resuspended in PBS containing propidium iodide (50 μg/ml; Sigma) and 0.05% Triton X-100, and subjected to analysis by a fluorescence-activated cell sorter (FACSCalibur; Becton Dickinson, Los Angeles, Calif.).
To investigate the effect of FTS on lung cancer cell proliferation, we first incubated A549 cells that harbor the activated K-ras gene mutated at codon 12. A549 cells are commonly used as a model for drug screening. […] Increasing concentration of FTS inhibited A549 cell growth at a dose dependent rate, with a decrease of 50% at 40 μM FTS. The number of cells in the FTS-treated cultures was determined by direct counting of A549 cells grown for 6 days in the presence of FTS and was expressed as a percentage of the number recorded in the controls. Data were means of 12 counts ±SD. *P<0.01, **P<0.0005, compared to control (FIG. 3). In another set of experiments, cells were also treated for 24 and 48 h with FTS and collected for FACS analysis (FIG. 4). The apoptotic population of cells (indicated in the FACS analysis as sub-G1) was 3.8% at 24 h and 8.4% at 48 h in cells treated with 75 μM FTS, compared to 1.0% and 2.8%, respectively, in control cells (FIG. 4). […] Thus, FTS induced cell-cycle arrest in A549 cells, resulting in inhibition of cell growth.

SMILES: CC(C)=CCC/C(C)=C/CC/C(C)=C/CSc1ccccc1C(=O)O [FTS, S-farnesylthiosalicylic acid]
- inhibition of phospho-ERK level (phospho-ERK): 33±2%
- cells that had undergone changes in cell morphology (A549 cells [1]): more than 80%
- inhibition at 75 µM (A549 cells [2]): 56.7 ± 17.4%
- apoptotic population of cells (sub-G1) (A549 cells [3]; 24 h): 3.8%
- apoptotic population of cells (sub-G1) (A549 cells [3]; 48 h): 8.4%
- reduction in G1 population (A549 cells [3]; 24 h): 5.6%
- reduction in G1 population (A549 cells [3]; 48 h): 19%
